Assay results as given in patent publication US4163799A, “Psychostimulant compounds” (Union Chimique Continentale U.C.C., priority 1975, dated 1979).
Where a name gives a salt, the structure may show the parent alone.

Key:
[1] = Antireserpine activity test, rat; format: in vivo, rat (male, Wistar AF); conditions: 8, 16, 32 mg/kg orally, reserpine 2.5 mg/kg IP 4 hours before
Experimental: (§1) All the experiments described below were carried out on male rats weighing between 170 and 220 g (Wistar AF strain) and male mice weighing between 18 and 23 g (Swiss NMRI strain), unless indicated to the contrary. All the experiments were conducted in a constant-temperature laboratory (22±1° C.). […] Unless indicated to the contrary 10 animals per batch were always used.

[2] = Antireserpine activity test, mouse; format: in vivo, mouse (male, Swiss NMRI); conditions: 8, 16, 32 mg/kg orally, reserpine 2.5 mg/kg IP 4 hours before
Experimental: as §1

[3] = Antioxotremorine activity test; format: in vivo, mouse (male, Swiss NMRI); conditions: 8, 16, 32 mg/kg orally or ip; oxotremorine 0.5 mg/kg IP
Experimental: as §1
In mice which received doses of 8, 16, and 32 mg/kg of NaAHDH orally or intraperitoneally the effects of oxotremorine (0.5 mg/kg IP) were unchanged, in terms of hyperthermia, trembling, lacrimation, hypersalivation, and defecation.

[4] = Motor activity in the rat (actimeter); format: in vivo, rat (male, 90-110 g)
Experimental: as §1
The motor activity was determined on male rats weighing between 90 and 110 g with the aid of the actimeter, the same instrument cited with regard to motor activity in the mouse.
The NaAHDH doses were given immediately before the actimeter was switched on.

[5] = Interaction with convulsants: cardiazol; format: in vivo; conditions: 64 mg/kg orally 30 minutes before cardiazol 160 mg/kg SC
Experimental: as §1

[6] = Avoidance conditioning, two-compartment shuttle-box; format: in vivo, rat (male, Wistar AF); conditions: 16 and 64 mg/kg orally, previously trained rats
Experimental: as §1
This avoidance conditioning in the rat placed in a two-compartment shuttle-box described by Boissier and Simon (Therapie 1968, 23, 1267-1276) was studied.

[7] = Stereotypy test with amphetamine; format: in vivo, rat (male, Wistar AF); conditions: 32 or 64 mg/kg orally 60 minutes before amphetamine 2 mg/kg IP
Experimental: as §1

[8] = Hot plate test with the mouse; format: in vivo, mouse (male, Swiss NMRI)
Experimental: as §1
This test was used to measure the reaction time of the animals to a painful stimulus. Ten animals were used per point. Fifteen minutes after oral administration of NaAHDH (32 mg/kg) the reaction time (licking of front paws) of the mice exposed to the hot plate was 5.8 seconds while that of the controls was 7.3 seconds (significant difference at the 0.05 threshold).

[9] = Potentialization of apomorphine; format: in vivo; conditions: compared with caffeine; no method described
[10] = Anticataleptic activity test (prochlorperazine); format: in vivo, rat (male, Wistar AF); conditions: 8 or 32 mg/kg ip or orally; prochlorperazine 8 mg/kg ip; homolateral paws, buddha, rocking plate tests
Experimental: as §1

[11] = Observation of animals, rat; format: in vivo, rat (male, Wistar AF)
Experimental: as §1

[12] = Overall activity and wakefulness profile (conclusion of the study); format: in vivo, rat and mouse
[13] = Modification of hypnotic effects (pentobarbital), rat; format: in vivo, rat (male, Wistar AF); conditions: 16, 32, 64 mg/kg orally, with or 60 minutes before pentobarbital
Experimental: as §1

[14] = Perforated board test; format: in vivo
Experimental: as §1
The technique and apparatus described by Boissier and Simon (Physiol. Behav. 1967, 2, 444-448) were used. In these experiments 15 animals per group were used (except for 30 for the controls and 30 for the 32 mg/kg dose).

[15] = Antihypnotic effect / pentobarbital antagonism (conclusion); format: in vivo
[16] = Observation of animals, mouse; format: in vivo, mouse (male, Swiss NMRI)
Experimental: as §1

[17] = system: monoaminoxidase; assay: Inhibitory effect of monoaminoxidase (tryptamine test); format: in vivo, rat (male, Wistar AF); conditions: 16 and 64 mg/kg orally; tryptamine 3 mg/kg IV
Experimental: as §1

[18] = doses less than toxic, beginning with 4 mg/kg orally or ip
[19] = doses less than toxic, from 4 mg/kg orally or ip
[20] = doses very close to the lethal doses
[21] = only at doses very close to the lethal doses
[22] = 8 mg/kg orally 60 min before test
[23] = 16 mg/kg orally 60 min before test
[24] = 32 mg/kg orally 60 min before test
[25] = 64 mg/kg orally 60 min before test

## CC(O)CC(c1ccccc1)C(C(=O)O)c1ccccc1 (stereo not shown) [NaAHDH, Sodium Salt of 5-Hydroxy-2,3-Diphenyl-Hexanoic Acid]
[1]
  modification of hyperthermia or drooping eyelid induced by reserpine: no modification of hyperthermia or drooping eyelid induced by reserpine
[2]
  modification of hyperthermia or drooping eyelid induced by reserpine: no modification of hyperthermia or drooping eyelid induced by reserpine
[3]
  effects of oxotremorine (hyperthermia, trembling, lacrimation, hypersalivation, defecation): unchanged
[4]; 16 mg/kg ip
  number of beams interrupted, 30 + 5 min: 39
  number of beams interrupted, 30 + 10 min: 67
  number of beams interrupted, 30 + 15 min: 104
  number of beams interrupted, 30 + 20 min: 133
  number of beams interrupted, 30 + 25 min: 156
  number of beams interrupted, 30 + 30 min: 182 ± 39
  number of beams interrupted, 30 min: 461 ± 32
[4]; 32 mg/kg ip
  number of beams interrupted, 30 + 5 min: 88
  number of beams interrupted, 30 + 10 min: 191
  number of beams interrupted, 30 + 15 min: 274
  number of beams interrupted, 30 + 20 min: 372
  number of beams interrupted, 30 + 25 min: 452
  number of beams interrupted, 30 + 30 min: 531 ± 84
  number of beams interrupted, 30 min: 631 ± 49
[4]; 32 mg/kg vo (orally)
  number of beams interrupted, 30 + 5 min: 31
  number of beams interrupted, 30 + 10 min: 69
  number of beams interrupted, 30 + 15 min: 100
  number of beams interrupted, 30 + 20 min: 118
  number of beams interrupted, 30 + 25 min: 131
  number of beams interrupted, 30 + 30 min: 164 ± 58
  number of beams interrupted, 30 min: 433 ± 43
[4]; 64 mg/kg vo (orally)
  number of beams interrupted, 30 + 5 min: 58
  number of beams interrupted, 30 + 10 min: 124
  number of beams interrupted, 30 + 15 min: 197
  number of beams interrupted, 30 + 20 min: 265
  number of beams interrupted, 30 + 25 min: 325
  number of beams interrupted, 30 + 30 min: 396 ± 62
  number of beams interrupted, 30 min: 517 ± 25
[4]; 16 and 32 mg/kg intraperitoneally
  motor activity: increase in motor activity
[4]; 32 and 64 mg/kg orally
  motor activity: increase in motor activity
[5]
  latency of convulsions: no decrease in the latency of convulsions
[6]
  change in avoidance conditioning: no change in the conditioning
[7]
  modification of amphetamine stereotyped movements: no modification in stereotyped movements
[8]; 32 mg/kg, with morphine
  effects of an analgesic dose of morphine on hot plate test: did not increase or decrease the effects of an analgesic dose of morphine
[8]; 15 min after 32 mg/kg orally, controls 7.3 seconds, significant at 0.05
  reaction time (licking of front paws): 5.8 s
[9]
  potentialization of apomorphine: does not potentialize apomorphine
[10]
  modification of cataleptic condition: no modification to the cataleptic condition
[11]
  sexual behavior: increase of sexual behavior
[11]; [18]
  excitation, reactivity to touch and sound stimuli: slight excitation was observed with enhanced reactivity to touch and sound stimuli
[11]; [19]
  diameter of the pupil: no change was observed in the diameter of the pupil
  hyperthermia: slight hyperthermia
  motor coordination, abnormal or stereotyped movements: not accompanied by lack of motor coordination or abnormal or stereotyped movements
[11]; [20]
  hyperthermia: about 2 °C
[11]; [21]
  toxic signs: trembling, hyperreactivity to very intense stimuli, interaggressivity, and convulsive phenomena extending to the rear paws
[12]; by contrast to nooanaleptics
  signs of sympathetic excitation: no signs of sympathetic excitation
[12]; orally, after administration
  persistence of increase in activity and wakefulness: about 2 hours
[13]
  time taken to fall asleep or length of sleep: no modification to the time taken to fall asleep or the length of sleep
[14]; [22]
  holes explored in 5 min: 101 percentage of controls
  movements made in 5 min: 102 percentage of controls
[14]; [23]
  holes explored in 5 min: 121 percentage of controls
  movements made in 5 min: 116 percentage of controls
[14]; [24]
  holes explored in 5 min: 140 percentage of controls
  movements made in 5 min: 159 percentage of controls
[14]; [25]
  holes explored in 5 min: 143 percentage of controls
  movements made in 5 min: 150 percentage of controls
[14]; orally
  movements: clear increase in movements
[14]; orally, significant from 16 mg/kg upward
  holes explored: large increase in the holes explored
[14]; po, orally, read-out: dose from which increase in holes explored is significant
  minimal effective dose: ≥ 16 mg/kg
[15]; at clearly stimulating doses
  pentobarbital antagonism: no pentobarbital antagonism
[15]; compared with caffeine
  antihypnotic effect: no antihypnotic effect
[16]; [18]
  excitation, reactivity to touch and sound stimuli: slight excitation was observed with enhanced reactivity to touch and sound stimuli
[16]; [19]
  diameter of the pupil: no change was observed in the diameter of the pupil
  hyperthermia: slight hyperthermia
  motor coordination, abnormal or stereotyped movements: not accompanied by lack of motor coordination or abnormal or stereotyped movements
[16]; [20]
  hyperthermia: about 2 °C
[16]; [21]
  toxic signs: trembling, hyperreactivity to very intense stimuli, interaggressivity, and convulsive phenomena extending to the rear paws
[17]
  potentialization of effects of infra-convulsant dose of tryptamine: no potentialization of the effects of an infra-convulsant dose of tryptamine
